From ChEMBL document CHEMBL1255312, “Activity of daptomycin against Listeria monocytogenes isolates from cerebrospinal fluid” (Antimicrob Agents Chemother, 2008)
≈ marks a conversion by molar mass, not a printed value.

Columns and labels:
[1] = test system: Listeria monocytogenes; assay: Antimicrobial activity against Listeria monocytogenes isolated from cerebrospinal fluid of meningitis patient by Etest method; assay type: functional
[2] = test system: Listeria monocytogenes; assay: Antimicrobial activity against Listeria monocytogenes isolated from cerebrospinal fluid of meningitis patient by broth dilution method; assay type: functional
[3] = test system: Staphylococcus aureus; assay: Antimicrobial activity against Staphylococcus aureus infected in hydrocephalic rabbit administered intraventricularly as single dose; conditions: Cardiac ventricle
[4] = test system: Homo sapiens; assay: Plasma concentration in healthy human at 4 mg/kg, iv QD; assay type: ADME, organism-based; parameters: dose 4 mg/kg, route intravenous; conditions: in vivo
[5] = test system: Staphylococcus aureus; assay: Antimicrobial activity against methicillin-susceptible Staphylococcus aureus infected in experimental rabbit meningitis model; assay type: functional
[6] = test system: Streptococcus pneumoniae; assay: Antimicrobial activity against penicillin-, quinolone-resistant Streptococcus pneumoniae WB4 infected in experimental rabbit meningitis model; assay type: functional

`CCCCCCCCCC(=O)N[C@@H](Cc1c[nH]c2ccccc12)C(=O)N[C@H](CC(N)=O)C(=O)N[C@@H](CC(=O)O)C(=O)N[C@@H]1C(=O)NCC(=O)N[C@@H](CCCN)C(=O)N[C@@H](CC(=O)O)C(=O)N[C@H](C)C(=O)N[C@@H](CC(=O)O)C(=O)NCC(=O)N[C@H](CO)C(=O)N[C@@H]([C@H](C)CC(=O)O)C(=O)N[C@@H](CC(=O)c2ccccc2N)C(=O)O[C@@H]1C` showed an MIC90 [1] of 4 µg/mL (≈ 2.47 µM), an MIC95 [1] of 1 µg/mL (≈ 0.617 µM) and an MIC90 [2] of 4 µg/mL (≈ 2.47 µM). For the same molecule, the MIC [3] was 0.25 µg/mL (≈ 0.154 µM), the Cp [4] was 60 µg/mL and the MIC [5] was 1 µg/mL (≈ 0.617 µM). The MIC [6] was 0.06 µg/mL (≈ 0.037 µM).
